Assay results reported in patent US20170000129A1, “METHOD FOR TREATING MINERAL SLURRIES WITH A BIOCIDE” (priority 2015, published 2017).

Columns and labels:
[1] = tested on: bacteria from a contaminated kaolin product; assay: Kaolin slurry preservation test, challenge: on day 20 samples inoculated with ~10^5 cfu/ml bacteria from a contaminated kaolin product; format: cell-based
Experimental: (§1) In the comparative testing, dry kaolin was mixed with water to achieve a 65% solid slurry material. This material contained no biocide. The slurry was then split into 200 gram aliquots and dosed with different biocides at different concentration as shown in Tables 1-3. All samples were kept at 50° C. until the end of the testing, which was up to 28 days.
(§2) The protocol for the testing of each sample is as follows: • 1) dosed with a recorded level of biocide; • 2) mixed for 24 hours contact time and plated using standard method agar for bacterial growth; • 3) remixed daily for 1 hour and retested for bacterial growth at Day 3; • 4) remixed daily for 1 hour and retested for bacterial growth at Day 7; • 5) remixed daily for 1 hour and retested for bacterial growth at Day 14; • 6) on day 20, samples were split into two containers: one container was inoculated (or challenged) with ˜10^5 cfu/ml bacteria, the other was left “as treated”, the challenge material was obtained from a contaminated kaolin product and is assumed to be representative of the types of bacteria that are seen in the kaolin industry, and the two sets of samples were prepared for Day 21 testing; • 7) both sets were remixed daily for 1 hour and retested for bacterial growth at Day 21; and • 8) both sets remixed daily for 1 hour and retested for bacterial growth at Day 28.

[2] = tested on: bacterial growth in kaolin slurry; assay: Kaolin slurry preservation test: biocide-dosed 65% solids slurry plated on standard method agar, samples as treated; format: cell-based, bacteria; details: for biocide efficacy compared with known biocides: Table 2, up to 28 days
Experimental: as §1
A number of different and known biocides were used in the study and they include glutaraldehyde (glute), 1,2 benzithiazolin-3-one (BIT), tetrahydro-3-5-methyl-2H-1,3,5-thiadizine-2-thione (thione), isothiazoline (ISO), bronopol (BNPD) or orthophenyl phenate (OPP). For shorthand purposes, the study refers to the tradename of the biocide, which is found in the above listing of the biocides. Metam sodium is designated as SMDC and MDTCMA is used without change
as §2
Different contact times were used to see how quickly the bacterial population was effected by the biocide.

CN.CNC(=S)S [MDTCMA, methylammonium monomethyldithiocarbamate]
Log Red, 21 day Challenge ([1]; 500 ppm, Table 2): 3
Log Red, 28 day Challenge ([1]; 500 ppm, Table 2): 3
cfu/mL, 21 day Challenge ([1]; 500 ppm, Table 2): 73,000 cfu/mL
cfu/mL, 28 day Challenge ([1]; 500 ppm, Table 2): 65,000 cfu/mL
Log Red, 21 day Challenge ([1]; 1000 ppm, Table 2): 3
Log Red, 28 day Challenge ([1]; 1000 ppm, Table 2): 3
cfu/mL, 21 day Challenge ([1]; 1000 ppm, Table 2): 52,000 cfu/mL
cfu/mL, 28 day Challenge ([1]; 1000 ppm, Table 2): 32,000 cfu/mL
Log Red, 21 day Challenge ([1]; 1000 ppm, Table 3): 2
Log Red, 28 day Challenge ([1]; 1000 ppm, Table 3): 1
cfu/mL, 21 day Challenge ([1]; 1000 ppm, Table 3): 196,000 cfu/mL
cfu/mL, 28 day Challenge ([1]; 1000 ppm, Table 3): 3,680,000 cfu/mL
Log Red, 21 day Challenge ([1]; 1500 ppm, Table 3): 3
Log Red, 28 day Challenge ([1]; 1500 ppm, Table 3): 1
cfu/mL, 21 day Challenge ([1]; 1500 ppm, Table 3): 18,200 cfu/mL
cfu/mL, 28 day Challenge ([1]; 1500 ppm, Table 3): 2,300,000 cfu/mL
biocide effectiveness in challenge testing ([1]; Table 3, challenge testing): still performed adequately
biocide effectiveness after inoculation, overall result of the studies ([1]; after inoculation): effective biocide
Log Red, contact time 1 day ([2]; 500 ppm, Table 1): 0
Log Red, contact time 3 day ([2]; 500 ppm, Table 1): 1
Log Red, contact time 7 day ([2]; 500 ppm, Table 1): 3
cfu/mL, contact time 1 day ([2]; 500 ppm, Table 1): 13,140,000 cfu/mL
cfu/mL, contact time 3 day ([2]; 500 ppm, Table 1): 1,880,000 cfu/mL
cfu/mL, contact time 7 day ([2]; 500 ppm, Table 1): 40,000 cfu/mL
performance against the BIT biocide when measuring log reduction ([2]; 500 ppm, Table 1): performed at least as well as the BIT biocide
Log Red, contact time 1 day ([2]; 500 ppm, Table 2): 0
Log Red, contact time 3 day ([2]; 500 ppm, Table 2): 1
Log Red, contact time 7 day ([2]; 500 ppm, Table 2): 4
Log Red, contact time 14 day ([2]; 500 ppm, Table 2): 4
Log Red, contact time 21 day ([2]; 500 ppm, Table 2): 5
Log Red, contact time 28 day ([2]; 500 ppm, Table 2): 4
cfu/mL, contact time 1 day ([2]; 500 ppm, Table 2): 18,840,000 cfu/mL
cfu/mL, contact time 3 day ([2]; 500 ppm, Table 2): 1,960,000 cfu/mL
cfu/mL, contact time 7 day ([2]; 500 ppm, Table 2): 5,600 cfu/mL
cfu/mL, contact time 14 day ([2]; 500 ppm, Table 2): 3,100 cfu/mL
cfu/mL, contact time 21 day ([2]; 500 ppm, Table 2): 1,800 cfu/mL
cfu/mL, contact time 28 day ([2]; 500 ppm, Table 2): 2,500 cfu/mL
Log Red, contact time 1 day ([2]; 1000 ppm, Table 1): 1
Log Red, contact time 3 day ([2]; 1000 ppm, Table 1): 2
Log Red, contact time 7 day ([2]; 1000 ppm, Table 1): 5
cfu/mL, contact time 1 day ([2]; 1000 ppm, Table 1): 7,060,000 cfu/mL
cfu/mL, contact time 3 day ([2]; 1000 ppm, Table 1): 1,680,000 cfu/mL
cfu/mL, contact time 7 day ([2]; 1000 ppm, Table 1): 1,000 cfu/mL
performance against the BIT biocide when measuring log reduction ([2]; 1000 ppm, Table 1): far superior
Log Red, contact time 1 day ([2]; 1000 ppm, Table 2): 0
Log Red, contact time 3 day ([2]; 1000 ppm, Table 2): 4
Log Red, contact time 7 day ([2]; 1000 ppm, Table 2): 4
Log Red, contact time 14 day ([2]; 1000 ppm, Table 2): 4
Log Red, contact time 21 day ([2]; 1000 ppm, Table 2): 5
Log Red, contact time 28 day ([2]; 1000 ppm, Table 2): 4
cfu/mL, contact time 1 day ([2]; 1000 ppm, Table 2): 14,520,000 cfu/mL
cfu/mL, contact time 3 day ([2]; 1000 ppm, Table 2): 7,000 cfu/mL
cfu/mL, contact time 7 day ([2]; 1000 ppm, Table 2): 3,200 cfu/mL
cfu/mL, contact time 14 day ([2]; 1000 ppm, Table 2): 2,500 cfu/mL
cfu/mL, contact time 21 day ([2]; 1000 ppm, Table 2): 1,100 cfu/mL
cfu/mL, contact time 28 day ([2]; 1000 ppm, Table 2): 1,700 cfu/mL
Log Red, contact time 1 day ([2]; 1000 ppm, Table 3): 3
Log Red, contact time 3 day ([2]; 1000 ppm, Table 3): 2
Log Red, contact time 7 day ([2]; 1000 ppm, Table 3): 2
Log Red, contact time 14 day ([2]; 1000 ppm, Table 3): 3
Log Red, contact time 21 day ([2]; 1000 ppm, Table 3): 2
Log Red, contact time 28 day ([2]; 1000 ppm, Table 3): 2
cfu/mL, contact time 1 day ([2]; 1000 ppm, Table 3): 100 cfu/mL
cfu/mL, contact time 3 day ([2]; 1000 ppm, Table 3): 100 cfu/mL
cfu/mL, contact time 7 day ([2]; 1000 ppm, Table 3): 100 cfu/mL
cfu/mL, contact time 14 day ([2]; 1000 ppm, Table 3): 100 cfu/mL
cfu/mL, contact time 21 day ([2]; 1000 ppm, Table 3): 100 cfu/mL
cfu/mL, contact time 28 day ([2]; 1000 ppm, Table 3): 100 cfu/mL
Log Red, contact time 1 day ([2]; 1500 ppm, Table 3): 3
Log Red, contact time 3 day ([2]; 1500 ppm, Table 3): 2
Log Red, contact time 7 day ([2]; 1500 ppm, Table 3): 2
Log Red, contact time 14 day ([2]; 1500 ppm, Table 3): 3
Log Red, contact time 21 day ([2]; 1500 ppm, Table 3): 2
Log Red, contact time 28 day ([2]; 1500 ppm, Table 3): 2
cfu/mL, contact time 1 day ([2]; 1500 ppm, Table 3): 100 cfu/mL
cfu/mL, contact time 3 day ([2]; 1500 ppm, Table 3): 100 cfu/mL
cfu/mL, contact time 7 day ([2]; 1500 ppm, Table 3): 100 cfu/mL
cfu/mL, contact time 14 day ([2]; 1500 ppm, Table 3): 100 cfu/mL
cfu/mL, contact time 21 day ([2]; 1500 ppm, Table 3): 100 cfu/mL
cfu/mL, contact time 28 day ([2]; 1500 ppm, Table 3): 100 cfu/mL
biocide efficacy compared with known biocides [2]: comparable biocide efficacy as compared to known biocides
biocide effectiveness compared with thione ([2]; Table 3, up to the 28 day testing, not challenge testing, 1000 and 1500 ppm): performed on a par with the thione

O=CCCCC=O [50% Glute, glutaraldehyde, reference compound]
Log Red, 21 day Challenge ([1]; 400 ppm, Table 2): 6
Log Red, 28 day Challenge ([1]; 400 ppm, Table 2): 5
cfu/mL, 21 day Challenge ([1]; 400 ppm, Table 2): 100 cfu/mL
cfu/mL, 28 day Challenge ([1]; 400 ppm, Table 2): 100 cfu/mL
Log Red, contact time 1 day ([2]; 400 ppm, Table 2): 5
Log Red, contact time 3 day ([2]; 400 ppm, Table 2): 5
Log Red, contact time 7 day ([2]; 400 ppm, Table 2): 6
Log Red, contact time 14 day ([2]; 400 ppm, Table 2): 6
Log Red, contact time 21 day ([2]; 400 ppm, Table 2): 6
Log Red, contact time 28 day ([2]; 400 ppm, Table 2): 5
cfu/mL, contact time 1 day ([2]; 400 ppm, Table 2): 100 cfu/mL
cfu/mL, contact time 3 day ([2]; 400 ppm, Table 2): 100 cfu/mL
cfu/mL, contact time 7 day ([2]; 400 ppm, Table 2): 100 cfu/mL
cfu/mL, contact time 14 day ([2]; 400 ppm, Table 2): 100 cfu/mL
cfu/mL, contact time 21 day ([2]; 400 ppm, Table 2): 100 cfu/mL
cfu/mL, contact time 28 day ([2]; 400 ppm, Table 2): 100 cfu/mL
biocide efficacy compared with known biocides [2]: best performer
